Drawing on patent publication US8071590B2, “9-substituted-5-carboxy-oxadiazino-quinolone derivatives, their preparation and their application as anti-bacterials” (Vetoquinol SA, priority 2008, dated 2011), this text covers MIC for 9 compounds.

What all share (format): cell-based
Experiment [1] concerns Mannheimia haemolytica, susceptible (Man hae s). Briefly: MIC determination by microdilution in liquid medium. Particulars: susceptible strain. On the technique in general: Broth dilution looks for growth in wells or tubes with falling amounts of substance.
The test system of experiment [2] is Bordetella bronchiseptica (Bor bron). Briefly: microbe, parasite or virus in culture. Conditions: read-out: MIC Bor bron.
In experiment [3] the test system is Escherichia coli (E coli). Briefly: microbe, parasite or virus in culture. Conditions: read-out: MIC E coli.
For experiment [4], the system named is Streptococcus uberis (Str ube). Put plainly: microbe, parasite or virus in culture. Conditions: read-out: MIC Str ube.
Experiment [5] relates to Staphylococcus aureus, susceptible (Sta aur s). Briefly: microbe, parasite or virus in culture. Particulars: read-out: MIC Sta aur s.
Experiment [6] has as its system Staphylococcus aureus, resistant (Sta aur r). Briefly: microbe, parasite or virus in culture. Conditions: read-out: MIC Sta aur r.
Experiment [7] deals with Mycoplasma bovis (Myc bov). Put plainly: microbe, parasite or virus in culture. Conditions: Mycoplasmopsis bovis, read-out: MIC Myc bov.
Experiment [8] deals with Clostridium perfringens (Clo per). Briefly: microbe, parasite or virus in culture. Particulars: read-out: MIC Clo per.
The test system of experiment [9] is Pseudomonas aeruginosa, susceptible (Pse aer s). Briefly: microbe, parasite or virus in culture. Conditions: read-out: MIC Pse aer s.
In experiment [10] the test system is Mannheimia haemolytica, resistant (Man hae r). Briefly: MIC determination by microdilution in liquid medium. Particulars: resistant strain.
The subject of experiment [11] is Pseudomonas aeruginosa, resistant (Pse aer r). Briefly: microbe, parasite or virus in culture. Conditions: read-out: MIC Pse aer r.

Structures are written as SMILES. In brackets after ≈: the same amount, converted by molar mass.

As to `CN1COc2c(N3CCN(C(=O)c4cccn4C)CC3)c(F)cc3c(=O)c(C(=O)O)cn1c23` [Example 1, 8-Fluoro-3-methyl-9-[4-(1-methyl-1H-pyrrole-2-carbonyl)-piperazin-1-yl]-6-oxo-2,3-dihydro-6H-1-oxa-3,3a-diaza-phenalene-5-carboxylic acid], the MIC in [1] was 1 µg/mL (≈ 2.2 µM); in experiment [2], more than 1 µg/mL; in experiment [3], more than 1 µg/mL; in experiment [4], 2 µg/mL (≈ 4.39 µM); in [5] it was 0.25 µg/mL (≈ 0.549 µM); in experiment [6] it was 16 µg/mL (≈ 35.1 µM). In addition, the MIC in [7] and in experiment [8] was 0.5 µg/mL (≈ 1.1 µM) throughout.
With `CN1COc2c(N3CCN(C(=O)c4cscn4)CC3)c(F)cc3c(=O)c(C(=O)O)cn1c23` [Example 2], the MIC was 0.25 µg/mL (≈ 0.544 µM) in experiment [1]; more than 1 µg/mL in experiment [2]; more than 1 µg/mL in experiment [3]; 2 µg/mL (≈ 4.35 µM) in experiment [4]; 0.12 µg/mL (≈ 0.261 µM) in experiment [5]; 8 µg/mL (≈ 17.4 µM) in experiment [6]. Also, the MIC in experiment [7] came to 1 µg/mL (≈ 2.18 µM); in experiment [8], 0.25 µg/mL (≈ 0.544 µM).
`Cc1ncsc1C(=O)N1CCN(c2c(F)cc3c(=O)c(C(=O)O)cn4c3c2OCN4C)CC1` [Example 3, 8-Fluoro-3-methyl-9-[4-(4-methyl-thiazole-5-carbonyl)-piperazin-1-yl]-6-oxo-2,3-dihydro-6H-1-oxa-3,3a-diaza-phenalene-5-carboxylic acid]: the MIC in experiment [1] is 0.5 µg/mL (≈ 1.06 µM); in experiment [2] it was 2 µg/mL (≈ 4.22 µM); in experiment [3] it was more than 1 µg/mL; in experiment [4] it was 1 µg/mL (≈ 2.11 µM); in [5], 0.25 µg/mL (≈ 0.528 µM); in experiment [6] it was 16 µg/mL (≈ 33.8 µM). The MIC in [7] was 2 µg/mL (≈ 4.22 µM); in experiment [8], 0.5 µg/mL (≈ 1.06 µM).
Regarding `CN1COc2c(N3CCN(C(=O)c4cccs4)CC3)c(F)cc3c(=O)c(C(=O)O)cn1c23` [Example 4, 8-Fluoro-3-methyl-6-oxo-9-[4-(thiophene-2-carbonyl)-piperazin-1-yl]-2,3-dihydro-6H-1-oxa-3,3a-diaza-phenalene-5-carboxylic acid], the MIC in [1] is 0.25 µg/mL (≈ 0.545 µM); in experiment [2], 2 µg/mL (≈ 4.36 µM); in experiment [3], more than 1 µg/mL; in experiment [4], 0.5 µg/mL (≈ 1.09 µM); in experiment [5] it was 0.06 µg/mL (≈ 0.131 µM); in experiment [6] it was 4 µg/mL (≈ 8.72 µM). In addition, the MIC amounted to 0.5 µg/mL (≈ 1.09 µM) in [7] and 0.25 µg/mL (≈ 0.545 µM) in experiment [8].
Consider `CN1COc2c(N3CCN(C(=O)c4ccco4)CC3)c(F)cc3c(=O)c(C(=O)O)cn1c23` [Example 5, 8-Fluoro-9-[4-(furan-2-carbonyl)-piperazin-1-yl]-3-methyl-6-oxo-Z 3-dihydro-6H-1-oxa-3,3a-diaza-phenalene-5-carboxylic acid], for which the MIC is 0.25 µg/mL (≈ 0.565 µM) in experiment [1]; more than 1 µg/mL in experiment [2]; more than 1 µg/mL in experiment [9]; 1 µg/mL (≈ 2.26 µM) in experiment [3]; 1 µg/mL (≈ 2.26 µM) in [4]; 0.06 µg/mL (≈ 0.136 µM) in [5]. Besides, the MIC was 4 µg/mL (≈ 9.04 µM) in experiment [6], 0.5 µg/mL (≈ 1.13 µM) in [7] and less than 0.03 µg/mL in experiment [8].
`CN1COc2c(N3CCN4CCCCC4C3)c(F)cc3c(=O)c(C(=O)O)cn1c23` (stereo not shown) [Example 6, 8-Fluoro-3-methyl-9-(octahydro-pyrido[1,2-a]pyrazin-2-yl)-6-oxo-2,3-dihydro-6H-1-oxa-3,3a-diaza-phenalene-5-carboxylic acid]: the MIC in experiment [1] was 0.06 µg/mL (≈ 0.149 µM); in experiment [10], 16 µg/mL (≈ 39.8 µM); in [2] it was 1 µg/mL (≈ 2.48 µM); in experiment [9] it was 2 µg/mL (≈ 4.97 µM); in experiment [11] it was 32 µg/mL (≈ 79.5 µM); in experiment [3], 0.12 µg/mL (≈ 0.298 µM). Moreover, the MIC in experiment [4] was determined as 1 µg/mL (≈ 2.48 µM); in experiment [5], 0.25 µg/mL (≈ 0.621 µM); in experiment [6], 16 µg/mL (≈ 39.8 µM); in [7], 1 µg/mL (≈ 2.48 µM); in experiment [8], 0.5 µg/mL (≈ 1.24 µM).
With `CN1COc2c(N3CCN4CCCC4C3)c(F)cc3c(=O)c(C(=O)O)cn1c23` (stereo not shown) [Example 7, 8-Fluoro-9-(hexahydro-pyrrolo[1,2-a]pyrazin-2-yl)-3-methyl-6-oxo-2,3-dihydro-6H-1-oxa-3,3a-diaza-phenalene-5-carboxylic acid], the MIC in experiment [1] was 0.03 µg/mL (≈ 0.0772 µM); in experiment [10], 4 µg/mL (≈ 10.3 µM); in experiment [2] it was 0.5 µg/mL (≈ 1.29 µM); in experiment [9], 1 µg/mL (≈ 2.57 µM); in [11], 8 µg/mL (≈ 20.6 µM); in experiment [3] it was 0.06 µg/mL (≈ 0.154 µM). Further, the MIC in experiment [4] turned out to be 0.5 µg/mL (≈ 1.29 µM); in experiment [5] it was 0.25 µg/mL (≈ 0.644 µM); in experiment [6] it was 16 µg/mL (≈ 41.2 µM); in experiment [7], 1 µg/mL (≈ 2.57 µM); in [8], 0.25 µg/mL (≈ 0.644 µM).
In the case of `CN1COc2c(N3CCN4CCC[C@H]4C3)c(F)cc3c(=O)c(C(=O)O)cn1c23` [Example 8, 8-Fluoro-9-(S)-hexahydro-pyrrolo[1,2-a]pyrazin-2-yl-3-methyl-6-oxo-2,3-dihydro-6H-1-oxa-3,3a-diaza-phenalene-5-carboxylic acid], the MIC in [1] worked out at 0.03 µg/mL (≈ 0.0772 µM); in experiment [10] it was 8 µg/mL (≈ 20.6 µM); in experiment [2] it was 0.5 µg/mL (≈ 1.29 µM); in [9], 0.5 µg/mL (≈ 1.29 µM); in [11], 8 µg/mL (≈ 20.6 µM); in experiment [3] it was 0.03 µg/mL (≈ 0.0772 µM). Further, the MIC was 0.5 µg/mL (≈ 1.29 µM) in experiment [4]; 0.25 µg/mL (≈ 0.644 µM) in experiment [5]; 16 µg/mL (≈ 41.2 µM) in experiment [6]; 1 µg/mL (≈ 2.57 µM) in experiment [7]; 0.25 µg/mL (≈ 0.644 µM) in experiment [8].
Take `CN1COc2c(N3CCN4CCC[C@@H]4C3)c(F)cc3c(=O)c(C(=O)O)cn1c23` [Example 9, 8-Fluoro-9-(R)-hexahydro-pyrrolo[1,2-a]pyrazin-2-yl-3-methyl-6-oxo-2,3-dihydro-6H-1-oxa-3,3a-diaza-phenalene-5-carboxylic acid]: the MIC in experiment [1] came out at 0.03 µg/mL (≈ 0.0772 µM); in experiment [10] it was 4 µg/mL (≈ 10.3 µM); in [2] it was 0.25 µg/mL (≈ 0.644 µM); in experiment [9] it was 0.5 µg/mL (≈ 1.29 µM); in experiment [11] it was 8 µg/mL (≈ 20.6 µM); in [3], 0.03 µg/mL (≈ 0.0772 µM). In addition, the MIC in [4] was 0.5 µg/mL (≈ 1.29 µM); in experiment [5], 0.12 µg/mL (≈ 0.309 µM); in experiment [6], 8 µg/mL (≈ 20.6 µM); in experiment [7], 0.5 µg/mL (≈ 1.29 µM); in [8], 0.5 µg/mL (≈ 1.29 µM).
